Source: patent US8703965B2, “Preparation of saturated imidazolinium salts and related compounds” (Materia, Inc., priority 2007, dated 2014)

Assay: Solubility of the salts in different solvents at different temperature (basis for the separation)
Excerpt: The principle to separate the two salts is the solubility in different solvents at different temperature.

Solubility in toluene (100 C.)	Compound	Solubility in acetone (Room Temperature)	Solubility in hexane (Room Temperature)	Solubility in toluene (Room Temperature)	Solubility in water (Room Temperature)
	Cc1cc(C)c(N2C=[N+](c3c(C)cc(C)cc3C)CC2)c(C)c1.[Br-] [sIMes-HBr, 1,3-Dimesitylimidazolinium Bromide]	slightly soluble	not soluble	not soluble	slightly soluble
soluble	Br.CCN(C(C)C)C(C)C [i-Pr2NEt—HBr]	soluble	not soluble	not soluble	very soluble
